pKd, pKi: −log10 of the molar value.
What was measured:
Rattus norvegicus = species on record: Rattus norvegicus; assay: Antagonistic activity against excitations of rat ventromedial hyphalamic neurones evoked in CCK-B; type: functional
[1] = Tested for dissociation constant of the compound; Value ranges from 0.1-0.3; type: ADME
[2] = molecular target: T1, Gastrin/cholecystokinin type B receptor (Rattus norvegicus) (UniProt P30553); assay: Specific activity for Cholecystokinin type B receptor in 10e5 AR42J cells was determined for the compound.; type: cell-based; details: AR-42J
T1 sequence (whole entry): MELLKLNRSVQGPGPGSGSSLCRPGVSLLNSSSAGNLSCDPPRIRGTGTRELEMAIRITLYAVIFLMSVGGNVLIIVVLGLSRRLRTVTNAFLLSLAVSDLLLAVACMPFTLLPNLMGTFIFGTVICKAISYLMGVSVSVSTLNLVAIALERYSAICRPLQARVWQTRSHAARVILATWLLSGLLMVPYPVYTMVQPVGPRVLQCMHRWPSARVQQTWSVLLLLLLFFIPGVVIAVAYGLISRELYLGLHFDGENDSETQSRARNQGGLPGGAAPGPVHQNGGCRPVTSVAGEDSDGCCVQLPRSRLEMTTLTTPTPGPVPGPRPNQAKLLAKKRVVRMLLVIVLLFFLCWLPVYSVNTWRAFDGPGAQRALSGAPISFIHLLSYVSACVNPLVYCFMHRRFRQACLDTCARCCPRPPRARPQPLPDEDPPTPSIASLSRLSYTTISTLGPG

[3] = molecular target: T2, Gastrin/cholecystokinin type B receptor (Mus musculus, UniProt P56481); assay: The compound was evaluated for the inhibition of binding of [3H]-PD 140376 to Cholecystokinin type B receptor in mouse cortex.
T2 sequence (P56481 whole entry): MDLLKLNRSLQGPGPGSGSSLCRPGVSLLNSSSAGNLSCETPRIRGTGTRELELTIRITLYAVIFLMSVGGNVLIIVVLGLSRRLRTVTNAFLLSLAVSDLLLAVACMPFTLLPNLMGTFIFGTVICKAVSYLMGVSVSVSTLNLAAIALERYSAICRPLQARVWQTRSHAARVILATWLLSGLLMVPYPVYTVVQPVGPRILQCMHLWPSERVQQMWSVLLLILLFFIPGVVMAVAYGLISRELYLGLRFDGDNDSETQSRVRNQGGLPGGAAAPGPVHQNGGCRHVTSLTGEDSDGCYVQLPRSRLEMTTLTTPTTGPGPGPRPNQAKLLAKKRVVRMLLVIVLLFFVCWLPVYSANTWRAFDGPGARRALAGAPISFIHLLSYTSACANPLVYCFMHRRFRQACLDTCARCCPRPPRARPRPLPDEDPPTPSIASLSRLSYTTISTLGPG

[4] = molecular target: T3, Cholecystokinin receptor type A (Rattus norvegicus, UniProt P30551); assay: The compound was evaluated for the inhibition of binding of [125I]Bolton-Hunter CCK-8 to Cholecystokinin type A receptor in the rat pancreas.
T3 sequence (P30551 whole entry): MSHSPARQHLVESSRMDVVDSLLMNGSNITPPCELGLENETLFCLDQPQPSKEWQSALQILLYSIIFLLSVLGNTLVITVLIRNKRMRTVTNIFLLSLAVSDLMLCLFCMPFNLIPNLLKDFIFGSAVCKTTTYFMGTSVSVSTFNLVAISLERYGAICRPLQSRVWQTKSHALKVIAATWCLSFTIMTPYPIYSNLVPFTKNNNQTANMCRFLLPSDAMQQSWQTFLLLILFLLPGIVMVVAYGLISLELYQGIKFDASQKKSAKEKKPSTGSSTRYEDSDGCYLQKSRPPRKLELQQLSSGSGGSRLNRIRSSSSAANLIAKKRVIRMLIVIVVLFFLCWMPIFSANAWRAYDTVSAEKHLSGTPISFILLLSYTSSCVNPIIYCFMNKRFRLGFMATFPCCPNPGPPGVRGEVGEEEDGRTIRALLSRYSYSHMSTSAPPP

SMILES	Ke (Rattus norvegicus)	pKd [1]	Bmax (fmol/10^5 cells) [2]	pKi [3]	pKi [4]
CSCC[C@H](NC(=O)[C@H](Cc1c[nH]c2ccccc12)NC(=O)CCNC(=O)OC(C)(C)C)C(=O)N[C@@H](CC(=O)O)C(=O)N[C@@H](Cc1ccccc1)C(N)=O [PENTAGASTRIN]	1.4 nM	–	–	–	–
C[C@](Cc1c[nH]c2ccccc12)(NC(=O)OC1C2CC3CC(C2)CC1C3)C(=O)N[C@@H](CC(=O)O)Cc1ccc(N)cc1 (stereo not given in full)	–	10.00	31	9.70	6.46

Source: ChEMBL document CHEMBL1126475, “Synthesis of a potent and selective non-peptide CCK-B/gastrin receptor antagonist tritiated ligand” (Bioorg Med Chem Lett, 1993)
